Source: patent US12152035B2, “Androgen receptor binding molecule and use thereof” (Industrial Technology Research Institute, priority 2020, dated 2024)

Tests used:
Type in all cases: cell-based
[1] = test system: full-length androgen receptor; test: Western blot: degradation of full-length androgen receptor in CWR22RV1 cells; details: overnight
Method in brief: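 CWR22Rv1 cells (5×10^5 per well) seeded overnight in RPMI with 10% FBS at 37 °C, 5% CO2, then given fresh medium and compound at various concentrations overnight. Lysates analysed by Western blot for full-length AR and AR-V7, with GAPDH as loading control.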

CWR22RV1 cells = test: Cytotoxicity assay (AlamarBlue, 72 hours); details: 72 hours treatment, concentration not given
Method in brief: (§1)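 CWR22Rv1 or VCaP cells in RPMI-1640 with 10% FBS were seeded at 1×10^4 cells/well. Next day they were treated with compound, test samples at 100, 10, 1 and 0.1 μM, giving 1% DMSO final. After 72 h, AlamarBlue was added for 4 h, fluorescence was read at Ex/Em 560/590 nm, and % cytotoxicity was calculated.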

VCaP cells = test: Cytotoxicity assay (AlamarBlue, 72 hours); details: 72 hours treatment, concentration not given
Method in brief: as §1

[2] = compound concentration 0.1 (unit not given)
[3] = compound concentration 1 (unit not given)
[4] = compound concentration 10 (unit not given)

SMILES: CC1(C)[C@H](NC(=O)c2ccc(C#CC3CCN(c4cccc5c4C(=O)N(C4CCC(=O)NC4=O)C5=O)CC3)cc2)C(C)(C)[C@H]1Oc1ccc2nnc(C(F)(F)F)n2n1 (stereo partly shown) [Compound 46, 4-((1-(2-(2,6-dioxopiperidin-3-yl)-1,3-dioxoisoindolin-4-yl)piperidin-4-yl)ethynyl)-N-((1r,3r)-2,2,4,4-tetramethyl-3-((3-(trifluoromethyl)-[1,2,4]triazolo[4,3-b]pyridazin-6-yl)oxy)cyclobutyl)benzamide]
- Degradation ability for full-length androgen receptor (residual rate %) [1, 2]: ++ (40-60%: ++)
- Degradation ability for full-length androgen receptor (residual rate %) [1, 3]: ++ (40-60%: ++)
- Degradation ability for full-length androgen receptor (residual rate %) [1, 4]: − (>80%; −)
- Cytotoxicity, CWR22RV1 cells (cell viability %) (CWR22RV1 cells): − (<80% : −)
- Cytotoxicity, VCaP cells (cell viability %) (VCaP cells): ++ (40-60% : ++)

SMILES: O=C1CCC(N2Cc3cc(C4CCN(C(=O)COCCCCOc5ccc(C6CCN(C7=Nn8c(nnc8C(F)(F)F)CC7)CC6)cc5)CC4)ccc3C2=O)C(=O)N1 (stereo not shown) [Compound 41, 3-(1-oxo-5-(1-(2-(4-(4-(1-(3-(trifluoromethyl)-7,8-dihydro-[1,2,4]triazolo[4,3-b]pyridazin-6-yl)piperidin-4-yl)phenoxy)butoxy)acetyl)piperidin-4-yl)isoindolin-2-yl)piperidine-2,6-dione]
- Degradation ability for full-length androgen receptor (residual rate %) [1, 2]: − (>80%; −)
- Degradation ability for full-length androgen receptor (residual rate %) [1, 3]: + (60-80%: +)
- Degradation ability for full-length androgen receptor (residual rate %) [1, 4]: +++ (<40%: +++)
- Cytotoxicity, CWR22RV1 cells (cell viability %) (CWR22RV1 cells): ++ (40-60% : ++)
- Cytotoxicity, VCaP cells (cell viability %) (VCaP cells): +++ (<40% : +++)

SMILES: Cc1ncsc1-c1ccc(CNC(=O)[C@H]2C[C@@H](O)CN2C(=O)[C@@H](NC(=O)C2(F)CC2)C(C)(C)C)c(OCCCCCCCOc2ccc(C3CCN(C4=Nn5c(nnc5C(F)(F)F)CC4)CC3)cc2)c1 [Compound 36, (2R,4R)-1-((S)-2-(1-fluorocyclopropane-1-carboxamido)-3,3-dimethylbutanoyl)-4-hydroxy-N-(4-(4-methylthiazol-5-yl)-2-((7-(4-(1-(3-(trifluoromethyl)-7,8-dihydro-[1,2,4]triazolo[4,3-b]pyridazin-6-yl)piperidin-4-yl)phenoxy)heptyl)oxy)benzyl)pyrrolidine-2-carboxamide]
- Degradation ability for full-length androgen receptor (residual rate %) [1, 2]: − (>80%; −)
- Degradation ability for full-length androgen receptor (residual rate %) [1, 3]: + (60-80%: +)
- Degradation ability for full-length androgen receptor (residual rate %) [1, 4]: + (60-80%: +)
- Cytotoxicity, CWR22RV1 cells (cell viability %) (CWR22RV1 cells): +++ (<40% : +++)
- Cytotoxicity, VCaP cells (cell viability %) (VCaP cells): +++ (<40% : +++)

SMILES: Cc1ncsc1-c1ccc(CNC(=O)[C@@H]2C[C@H](O)CN2C(=O)[C@@H](NC(=O)COCCOc2ccc(C3CCN(C4=Nn5c(nnc5C(F)(F)F)CC4)CC3)cc2)C(C)(C)C)cc1 [Compound 19, (2S,4S)-1-((S)-3,3-dimethyl-2-(2-(2-(4-(1-(3-(trifluoromethyl)-7,8-dihydro-[1,2,4]triazolo[4,3-b]pyridazin-6-yl)piperidin-4-yl)phenoxy)ethoxy)acetamido)butanoyl)-4-hydroxy-N-(4-(4-methylthiazol-5-yl)benzyl)pyrrolidine-2-carboxamide]
- Degradation ability for full-length androgen receptor (residual rate %) [1, 2]: − (>80%; −)
- Degradation ability for full-length androgen receptor (residual rate %) [1, 3]: − (>80%; −)
- Degradation ability for full-length androgen receptor (residual rate %) [1, 4]: − (>80%; −)
- Cytotoxicity, CWR22RV1 cells (cell viability %) (CWR22RV1 cells): − (<80% : −)
- Cytotoxicity, VCaP cells (cell viability %) (VCaP cells): − (<80% : −)

SMILES: O=C1CCC(N2C(=O)c3cccc(NCC(=O)N4CCC(N5CCC(C#Cc6ccc(C7CCN(C8=Nn9c(nnc9C(F)(F)F)CC8)CC7)cc6)CC5)CC4)c3C2=O)C(=O)N1 (stereo not shown) [Compound 43, 2-(2,6-dioxopiperidin-3-yl)-4-((2-oxo-2-(4-((4-(1-(3-(trifluoromethyl)-7,8-dihydro-[1,2,4]triazolo[4,3-b]pyridazin-6-yl)piperidin-4-yl)phenyl)ethynyl)-[1,4′-bipiperidin]-1′-yl)ethyl)amino)isoindoline-1,3-dione]
- Degradation ability for full-length androgen receptor (residual rate %) [1, 2]: ++ (40-60%: ++)
- Degradation ability for full-length androgen receptor (residual rate %) [1, 3]: ++ (40-60%: ++)
- Degradation ability for full-length androgen receptor (residual rate %) [1, 4]: ++ (40-60%: ++)
- Cytotoxicity, CWR22RV1 cells (cell viability %) (CWR22RV1 cells): +++ (<40% : +++)
- Cytotoxicity, VCaP cells (cell viability %) (VCaP cells): +++ (<40% : +++)

SMILES: Cc1ncsc1-c1ccc(CNC(=O)[C@@H]2C[C@H](O)CN2C(=O)[C@@H](NC(=O)COCCCCOc2ccc(C3CCN(c4ccc5nnc(C(F)(F)F)n5n4)CC3)cc2)C(C)(C)C)cc1 [Compound 37, (2S,4S)-1-((S)-3,3-dimethyl-2-(2-(4-(4-(1-(3-(trifluoromethyl)-[1,2,4]triazolo[4,3-b]pyridazin-6-yl)piperidin-4-yl)phenoxy)butoxy)acetamido)butanoyl)-4-hydroxy-N-(4-(4-methylthiazol-5-yl)benzyl)pyrrolidine-2-carboxamide]
- Degradation ability for full-length androgen receptor (residual rate %) [1, 2]: − (>80%; −)
- Degradation ability for full-length androgen receptor (residual rate %) [1, 3]: + (60-80%: +)
- Degradation ability for full-length androgen receptor (residual rate %) [1, 4]: +++ (<40%: +++)
- Cytotoxicity, CWR22RV1 cells (cell viability %) (CWR22RV1 cells): +++ (<40% : +++)
- Cytotoxicity, VCaP cells (cell viability %) (VCaP cells): +++ (<40% : +++)

SMILES: O=C1CCC(N2C(=O)c3cccc(N4CCC(CN5CCN(c6ccc(C(=O)N[C@H]7CC[C@H](Oc8ccc9nnc(C(F)(F)F)n9n8)CC7)cn6)CC5)CC4)c3C2=O)C(=O)N1 (stereo partly shown) [Compound 48, 6-(4-((1-(2-(2,6-dioxopiperidin-3-yl)-1,3-dioxoisoindolin-4-yl)piperidin-4-yl)methyl)piperazin-1-yl)-N-((1r,4r)-4-((3-(trifluoromethyl)-[1,2,4]triazolo[4,3-b]pyridazin-6-yl)oxy)cyclohexyl)nicotinamide]
- Degradation ability for full-length androgen receptor (residual rate %) [1, 2]: − (>80%; −)
- Degradation ability for full-length androgen receptor (residual rate %) [1, 3]: − (>80%; −)
- Degradation ability for full-length androgen receptor (residual rate %) [1, 4]: − (>80%; −)
- Cytotoxicity, CWR22RV1 cells (cell viability %) (CWR22RV1 cells): − (<80% : −)
- Cytotoxicity, VCaP cells (cell viability %) (VCaP cells): − (<80% : −)

SMILES: O=C1CCC(N2Cc3cc(C4=CCN(C(=O)COCCCCOc5ccc(C6CCN(C7=Nn8c(nnc8C(F)(F)F)CC7)CC6)cc5)CC4)ccc3C2=O)C(=O)N1 (stereo not shown) [Compound 40, 3-(1-oxo-5-(1-(2-(4-(4-(1-(3-(trifluoromethyl)-7,8-dihydro-[1,2,4]triazolo[4,3-b]pyridazin-6-yl)piperidin-4-yl)phenoxy)butoxy)acetyl)-1,2,3,6-tetrahydropyridin-4-yl)isoindolin-2-yl)piperidine-2,6-dione]
- Degradation ability for full-length androgen receptor (residual rate %) [1, 2]: + (60-80%: +)
- Degradation ability for full-length androgen receptor (residual rate %) [1, 3]: + (60-80%: +)
- Degradation ability for full-length androgen receptor (residual rate %) [1, 4]: +++ (<40%: +++)
- Cytotoxicity, CWR22RV1 cells (cell viability %) (CWR22RV1 cells): ++ (40-60% : ++)
- Cytotoxicity, VCaP cells (cell viability %) (VCaP cells): ++ (40-60% : ++)
